{
  "source": "paper PMC7391080",
  "about": "(2020)",
  "tested_on": "Sap9",
  "test": "6 ng/μL Sap9 in 2 mM sodium phosphate buffer",
  "details": "37 °C, up to 3 h",
  "note": "“And” between values parts separate entries of the source, which are not always exact repeats. Equal values may be shown once.",
  "data": [
    {"sequence": "DSHAKRHHGYKRKFHEKHHSHRGY", "values": [
      {"measurement": "fragment found", "value": "6–24, major and 7–24, major and 13–24, major and 14–24, major"}
    ]}
  ]
}
